# Experimental data published in patent publication US20240009175A9, “TETRAZOLE DERIVATIVES” (Merck Patent GmbH, priority 2020, published 2024).
# What was measured:
# [1] = molecular target: T1, ACSS2 (Homo sapiens (Human), UniProt Q9NR19); assay: Cellular assay of 14C acetate incorporation into histones (IC50 ACSS2 cellular histone); format: cell-based; settings: HCT-15 cells
# Description: Cellular Assay of ^14C Acetate Incorporation into Histones (IC50 ACSS2 Cellular Histone)
# This protocol describes a cellular assay capable to quantify endogenous histone acetylation activity in the human HCT-15 cancer cell line following the incorporation of extracellularly administered radiolabeled ^14C acetate with a scintillation based read out on acid extracted histones.
# HCT-15 cells are trypsinized, washed and suspended in DMEM culture medium supplemented with penicillin/streptomycin (100 U/mL), sodium pyruvate (1 mM), and 10% FBS
# Compounds serial dilutions are prepared in 96-well V-bottom microplate from 10 mM stock solutions in DMSO. From these dilutions 0.5 μl are transferred to a fresh plate including pure DMSO as negative control. The dilutions are prepared such, that the final concentration in the assay is 1/400 of the concentration in the serial dilution. The final DMSO concentration in the assay is 0.25%.
# The cell suspension is seeded at densities of 2×10^5 cells per 170 μl into individual wells of a 96 well plate each containing 0.5 μl aliquots of compound serial dilutions and are kept for 1 h in a cell incubator. To each well 30 μL of a mixture containing 0.5 mCi/mL of ^14C-acetate with full medium are added. Then, the wells are incubated for 3 hrs in the cell incubator.
# Further steps of the procedure should be conducted on ice or instrumentations precooled to 4° C. Cells are sedimented in the 96-well V-bottom microplate by centrifugation (Eppendorf 5804 R) at 1200 rpm for 5 min. The supernatant is removed and the cells are washed twice with 200 μL of PBS-NaB (5 mM sodium butyrate) buffer by iterative resuspension and centrifugation. Finally, the cells are resuspended in 50 μL of TEB (PBS-NaB+0.5% Triton X-100) and left on ice for 10 minutes. After centrifugation at 2300 rpm for 10 minutes at 4° C. the supernatant is removed, the remaining pellet is suspended in 50 μL of 0.2M HCl and incubated over night at 4° C. After incubation the well plate is shaken for 2 minutes in a MTP plate shaker set to 1200 rpm and then centrifuged at 3700 rpm for 10 mins. The lysate is carefully aspirated (˜43 μL) and transferred into a white MTP plate (Greiner bio-one 65509). 90 μL of Ultima Gold XR scintillation cocktail are added and the plates are sealed with a transparent cover tape before mixing vigorously using plate shaker set to 1200 rpm. Radioactivity from ^14C incorporation in the wells is measured as CPM count in a MicroBeta Trilux luminescence counter.
# [2] = molecular target: human rec ACSS2 (Homo sapiens (Human), UniProt Q9NR19); assay: Biochemical activity ACSS2 assay (AMP-Glo); settings: human recombinant ACSS2, AMP-Glo, 180 min at 37° C.
# Description: Biochemical Activity ACSS2 Assay (IC50 ACSS2 Biochemical)
# The biochemical activity assay for ACSS2 is based on the detection of released AMP by AMP-Glo™ Assay kit (Promega, Madison). The assay is run in three steps: the enzymatic reaction in which human rec ACSS2 activates acetate with ATP and Coenzyme A as cosubstrates to acetyl-CoA thereby releasing AMP and the detection reaction of AMP by AMP Glo assay in which after the destruction of the residual ATP with AMP Glo reagent 1 produced AMP is converted to ATP that is measured in a luciferase assay system (detection reagent). The ACSS2 activity correlates with the detected luminescence signal.
# The assay was performed in Perkin Elmer 384 well white Proxiplates in a total volume of 8 μl.
# 1 nM (fc)C-term myc tagged ACSS2 (human, recombinant, Origene, Rockville, US) and a mixture of 100 μM (fc) ATP, 100 μM (fc) Coenzyme A and 500 μM (fc) sodium acetate were incubated in a total volume of 5 μl (50 mM Hepes, 1 mM Mg-chloride, 150 mM NaCl, 1 mM DTT, 0.01% (w/v) BSA, 0.3% DMSO, pH 7.5) in the absence or presence of the test compound (10 dilution concentrations, start conc 30 μM) for 180 min at 37° C. The reaction was stopped and residual ATP destroyed by the addition of 1 μl AMP Glo reagent solution (Promega, Madison, US). After 1h incubation at room temperature 2 μl of AMP Glo detection reagent was added and the assay was incubated for 0.75 hr at room temperature. The luminescence signal was measured with an Envision multimode reader (Perkin Elmer LAS Germany GmbH) at 700 nm in luminescence mode. The full value used was the inhibitor-free reaction. The pharmacological zero value was generated by addition of ACSS2 inhibitor (Ac-CoA Synthase Inhibitor—CAS 508186-14-9-Calbiochem) in a final concentration of 5 μM. The inhibitory values (IC50) were determined using the program Assay Analyzer® from GeneData.
# [3] = molecular target: T1, ACSS2; assay: Cellular assay of 14C acetate incorporation into fatty acids (IC50 ACSS2 cellular lipids); format: cell-based; settings: HCT-15 cells
# Protocol: Cellular Assay of ^14C Acetate Incorporation into Fatty Acids (IC50 ACSS2 Cellular Lipids)
# This protocol describes a cellular assay capable to quantify endogenous fatty acid synthesis activity in the human HCT-15 cancer cell line following the incorporation of extracellularly administered radiolabeled ^14C acetate with a scintillation proximity based read out on extracted fatty acids.
# HCT-15 cells were grown in RPMI 1640 (Gibco) supplemented with 2 mM glutamine, 1 mM sodium pyruvate 10 mM HEPES and 10% FCS (heat-inactivated) passaged every 2-3 days to remain a subconfluent, vital culture. A working cell bank was prepared with each aliquot containing 1×10^7 viable cells. After thawing, these cells are dilute immediately 1:20 in pre-warmed (37° C.) culture medium. Cells are collected by centrifugation at 200×g for 5 min, and the supernatant is replaced by 30 mL of fresh culture medium per aliquot to obtain a cell suspension containing 350000 cells/ml. From this cell suspension 100 μL are dispersed into each well of a collagen coated 96 well plate, (black, clear bottom, PS, F-bottom, Greiner) and culture for 24 h (37° C., 5% CO2). After incubation the culture medium is removed and the wells are washed once with 100 μL PBS++(supplemented with Mg^2+/Ca^2+, Gibco) and 50 μL assay medium (RPMI 1640+10 mM HEPES) are added to each well. Compounds serial dilutions are prepared from 10 mM stock solutions in DMSO using a fixed dilution factor (usually 1:3). After preparation of the dilution series in DMSO, the individual dilutions are further diluted in the assay medium. This working dilution is prepared such, that the concentration is 7× of the final concentration in the assay. The maximal DMSO concentration in the final assay is 0.1%.
# To each well 10 μL compound working dilution or DMSO blank are added and the cells are cultured for 2 h (37° C., 5% CO2). Then 10 μL AlamarBlue reagent (Invitrogen) containing 14 μCi/mL 14C-acetate (Perkin Elmer) are added to each well (70 μl total volume) and cells are again cultured for 2 h. Cell viability is verified by measuring the AlamarBlue fluorescence (Tecan Safire, ex: 544 nm/em: 590 nm). After incubation the culture medium is removed and the wells are carefully washed once with cold 100 μL PBS++. For cell lysis and fatty acid recovery 50 μl 0.1 M NaOH and 0.1% Triton-X100 are added per well. The plate is sealed with PlateLoc (clear peelable heat seal, Agilent) and incubate at 70° C. for 16-24 h. After cooling to room temperature, the plates are centrifuged for 1 min at 1000 rpm and the plate seals are removed. For acidification 150 μL 0.1 M HCl are added to each well, mixed and 150 μL of the mixture are transferred into a 96 well FlashPlate (Perkin Elmer). The plates are sealed with TopSeal-A (Perkin Elmer). To allow for the fatty acid binding to the well surfaces the plates are incubate for 4 h at 70° C. After cooling to room temperature, the plates are centrifuged for 1 min at 1000 rpm and stored for 0.5-2h at room temperature in the dark. Radioactivity from ^14C incorporation into fatty acids in the wells is measured as CPM count in a MicroBeta scintillation counter (Perkin Elmer).
# T1 sequence (Q9NR19 whole entry): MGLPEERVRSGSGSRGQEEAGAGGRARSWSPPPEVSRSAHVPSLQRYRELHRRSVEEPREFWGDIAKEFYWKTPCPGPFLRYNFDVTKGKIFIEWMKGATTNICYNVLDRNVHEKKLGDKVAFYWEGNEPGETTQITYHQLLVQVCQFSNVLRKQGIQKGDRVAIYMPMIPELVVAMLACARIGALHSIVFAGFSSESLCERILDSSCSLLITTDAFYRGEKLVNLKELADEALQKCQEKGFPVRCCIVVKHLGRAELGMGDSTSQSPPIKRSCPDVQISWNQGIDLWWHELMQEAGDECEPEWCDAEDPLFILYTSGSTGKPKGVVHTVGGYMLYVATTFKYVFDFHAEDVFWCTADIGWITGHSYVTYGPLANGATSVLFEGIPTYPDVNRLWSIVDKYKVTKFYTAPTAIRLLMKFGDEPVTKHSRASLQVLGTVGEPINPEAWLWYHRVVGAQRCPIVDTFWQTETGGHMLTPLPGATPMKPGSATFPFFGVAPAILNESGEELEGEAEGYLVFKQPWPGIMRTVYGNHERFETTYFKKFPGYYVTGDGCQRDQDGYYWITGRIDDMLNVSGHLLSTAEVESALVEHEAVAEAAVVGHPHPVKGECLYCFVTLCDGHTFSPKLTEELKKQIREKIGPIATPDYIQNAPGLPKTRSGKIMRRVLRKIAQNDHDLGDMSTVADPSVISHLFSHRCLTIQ
# human rec ACSS2, sequence (Q9NR19 whole entry): as above
IC50 [1],IC50 [2],IC50 [3],SMILES
100 to 10000 nM,10 to 100 nM,1 to 10 nM,"CCn1c(C(O)(c2ccccc2)c2ccccc2)nc2nc(F)c(-c3nnn[nH]3)cc21 [Compound 45, [1-ethyl-5-fluoro-6-(1H-1,2,3,4-tetrazol-5-yl)-1H-imidazo[4,5-b]pyridin-2-yl]diphenylmethanol]"
100 to 10000 nM,1 to 10 nM,10 to 100 nM,"Cc1nc2nc(C(O)(c3ccccc3)c3ccccc3)n(C)c2cc1-c1nnn[nH]1 [Compound 56, [1,5-dimethyl-6-(1H-1,2,3,4-tetrazol-5-yl)-1H-imidazo[4,5-b]pyridin-2-yl]diphenylmethanol]"

SMILES,IC50 [1],IC50 [2],IC50 [3]
"CCn1c(C(O)(c2ccccc2)c2nccs2)nc2nc(OC)c(-c3nnn[nH]3)cc21 (racemic) [Compound 31, [1-ethyl-5-methoxy-6-(1H-1,2,3,4-tetrazol-5-yl)-1H-imidazo[4,5-b]pyridin-2-yl](phenyl)(1,3-thiazol-2-yl)methanol]",1 to 10 nM,1 to 10 nM,0.01 to 1 nM
